Source: the NIST ThermoML archive (doi:10.1016/j.jct.2018.08.035)
± gives the expanded uncertainty stated by the source.

Assay: xn = mol fraction of the nth substance listed
Conditions: 100 kPa, Liquid, Vibrating tube method

CCC(O)CC [3-pentanol] + C[N+](=O)[O-] showed a mass density (290.36 K, x1 = 0.488) of 964.297 ± 2.1 kg/m3, a mass density (290.45 K, x1 = 0.246) of 1007.43 ± 2.2 kg/m3 and a mass density (290.45 K, x1 = 0.275) of 998.669 ± 2.1 kg/m3. For the same molecule, the mass density (290.45 K, x1 = 0.363) was 988.212 ± 2 kg/m3, the mass density (290.45 K, x1 = 0.382) was 985.548 ± 2 kg/m3 and the mass density (290.45 K, x1 = 0.407) was 981.549 ± 2 kg/m3. It also gave a mass density (290.45 K, x1 = 0.414) of 980.935 ± 2 kg/m3, a mass density (290.45 K, x1 = 0.486) of 965.653 ± 2.1 kg/m3 and a mass density (290.45 K, x1 = 0.488) of 962.338 ± 2.1 kg/m3. For the same molecule, the mass density (290.45 K, x1 = 0.546) was 938.388 ± 2.2 kg/m3, the mass density (290.45 K, x1 = 0.573) was 918.938 ± 2.3 kg/m3 and the mass density (290.45 K, x1 = 0.587) was 911.848 ± 2.3 kg/m3. For the same molecule, the mass density (290.45 K, x1 = 0.615) was 891.445 ± 1.9 kg/m3, the mass density (290.46 K, x1 = 0.266) was 1000.04 ± 2.1 kg/m3 and the mass density (290.46 K, x1 = 0.3) was 997.097 ± 2.1 kg/m3. It also gave a mass density (290.46 K, x1 = 0.325) of 993.308 ± 2 kg/m3, a mass density (290.46 K, x1 = 0.338) of 991.804 ± 2 kg/m3 and a mass density (290.55 K, x1 = 0.246) of 1007.31 ± 2.2 kg/m3. The mass density (290.55 K, x1 = 0.363) was 987.195 ± 2 kg/m3, the mass density (290.55 K, x1 = 0.382) was 984.63 ± 2 kg/m3 and the mass density (290.55 K, x1 = 0.407) was 980.769 ± 2 kg/m3. For the same molecule, the mass density (290.55 K, x1 = 0.414) was 980.125 ± 2 kg/m3, the mass density (290.55 K, x1 = 0.486) was 963.548 ± 2.1 kg/m3 and the mass density (290.55 K, x1 = 0.546) was 936.105 ± 2.2 kg/m3. For the same molecule, the mass density (290.55 K, x1 = 0.573) was 918.841 ± 2.4 kg/m3, the mass density (290.55 K, x1 = 0.587) was 907.457 ± 2.4 kg/m3 and the mass density (290.55 K, x1 = 0.615) was 891.334 ± 1.9 kg/m3. For the same molecule, the mass density (290.56 K, x1 = 0.266) was 999.223 ± 2.1 kg/m3, the mass density (290.56 K, x1 = 0.275) was 997.256 ± 2 kg/m3 and the mass density (290.56 K, x1 = 0.3) was 995.648 ± 2.1 kg/m3. It also gave a mass density (290.56 K, x1 = 0.325) of 992.372 ± 2 kg/m3, a mass density (290.56 K, x1 = 0.338) of 990.851 ± 2 kg/m3 and a mass density (290.56 K, x1 = 0.488) of 960.605 ± 2.1 kg/m3. For the same molecule, the mass density (290.65 K, x1 = 0.246) was 1007.18 ± 2.2 kg/m3, the mass density (290.65 K, x1 = 0.275) was 996.456 ± 2 kg/m3 and the mass density (290.65 K, x1 = 0.363) was 986.092 ± 2 kg/m3. The mass density (290.65 K, x1 = 0.382) was 983.656 ± 2 kg/m3, the mass density (290.65 K, x1 = 0.407) was 979.953 ± 2 kg/m3 and the mass density (290.65 K, x1 = 0.414) was 979.293 ± 2 kg/m3. For the same molecule, the mass density (290.65 K, x1 = 0.486) was 962.186 ± 2.1 kg/m3, the mass density (290.65 K, x1 = 0.488) was 958.456 ± 2.1 kg/m3 and the mass density (290.65 K, x1 = 0.546) was 933.71 ± 2.2 kg/m3. For the same molecule, the mass density (290.65 K, x1 = 0.573) was 914.236 ± 2.3 kg/m3, the mass density (290.65 K, x1 = 0.587) was 907.308 ± 2.2 kg/m3 and the mass density (290.65 K, x1 = 0.615) was 891.207 ± 1.9 kg/m3. It also gave a mass density (290.66 K, x1 = 0.266) of 998.714 ± 2.2 kg/m3, a mass density (290.66 K, x1 = 0.3) of 994.016 ± 2.1 kg/m3 and a mass density (290.66 K, x1 = 0.325) of 991.399 ± 2 kg/m3. The mass density (290.66 K, x1 = 0.338) was 989.957 ± 2 kg/m3, the mass density (290.75 K, x1 = 0.246) was 1007.05 ± 2.2 kg/m3 and the mass density (290.75 K, x1 = 0.266) was 998.54 ± 2.2 kg/m3. It also gave a mass density (290.75 K, x1 = 0.275) of 995.309 ± 2.1 kg/m3, a mass density (290.75 K, x1 = 0.338) of 988.906 ± 2 kg/m3 and a mass density (290.75 K, x1 = 0.363) of 984.963 ± 2 kg/m3. The mass density (290.75 K, x1 = 0.382) was 982.614 ± 2 kg/m3, the mass density (290.75 K, x1 = 0.407) was 979.022 ± 2 kg/m3 and the mass density (290.75 K, x1 = 0.414) was 978.364 ± 2 kg/m3. It also gave a mass density (290.75 K, x1 = 0.486) of 960.473 ± 2.1 kg/m3, a mass density (290.75 K, x1 = 0.488) of 956.964 ± 2.1 kg/m3 and a mass density (290.75 K, x1 = 0.546) of 931.465 ± 2.2 kg/m3. For the same molecule, the mass density (290.75 K, x1 = 0.573) was 914.122 ± 2.3 kg/m3, the mass density (290.75 K, x1 = 0.587) was 904.315 ± 2.4 kg/m3 and the mass density (290.75 K, x1 = 0.615) was 891.079 ± 1.9 kg/m3. It also gave a mass density (290.76 K, x1 = 0.3) of 992.118 ± 2.1 kg/m3, a mass density (290.76 K, x1 = 0.325) of 990.346 ± 2 kg/m3 and a mass density (290.85 K, x1 = 0.246) of 1006.93 ± 2.2 kg/m3. It also gave a mass density (290.85 K, x1 = 0.275) of 994.946 ± 2.2 kg/m3, a mass density (290.85 K, x1 = 0.363) of 983.532 ± 2 kg/m3 and a mass density (290.85 K, x1 = 0.382) of 981.337 ± 2 kg/m3. It also gave a mass density (290.85 K, x1 = 0.407) of 977.974 ± 2 kg/m3, a mass density (290.85 K, x1 = 0.486) of 958.566 ± 2.1 kg/m3 and a mass density (290.85 K, x1 = 0.488) of 954.397 ± 2.1 kg/m3. It also gave a mass density (290.85 K, x1 = 0.546) of 930.124 ± 2.2 kg/m3, a mass density (290.85 K, x1 = 0.573) of 911.261 ± 2.4 kg/m3 and a mass density (290.85 K, x1 = 0.587) of 900.983 ± 2.5 kg/m3. For the same molecule, the mass density (290.86 K, x1 = 0.266) was 998.415 ± 2.2 kg/m3, the mass density (290.86 K, x1 = 0.3) was 990.332 ± 2 kg/m3 and the mass density (290.86 K, x1 = 0.325) was 989.272 ± 2 kg/m3. It also gave a mass density (290.86 K, x1 = 0.338) of 987.682 ± 2 kg/m3.
